Test results reported in article doi:10.1101/2023.11.24.568596v1 (biorxiv, 2023).
One block for each molecule: values may come before it.

Legend:
Settings in all cases: binder
CHK2 = CHK2 (Homo sapiens, UniProt O96017)
NQO2A = target: T1, NQO2A (Homo sapiens, UniProt P16083)
T1 sequence (P16083 1-231): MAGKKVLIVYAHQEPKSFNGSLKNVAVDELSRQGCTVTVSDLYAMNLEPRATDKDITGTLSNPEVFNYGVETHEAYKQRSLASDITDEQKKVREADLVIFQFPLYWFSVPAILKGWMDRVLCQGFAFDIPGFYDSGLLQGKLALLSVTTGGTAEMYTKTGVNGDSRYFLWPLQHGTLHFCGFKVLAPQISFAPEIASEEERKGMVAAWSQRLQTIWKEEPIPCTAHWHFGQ

MER = target: T2, MER (Homo sapiens, UniProt Q12866)
T2 sequence (Q12866 1-999): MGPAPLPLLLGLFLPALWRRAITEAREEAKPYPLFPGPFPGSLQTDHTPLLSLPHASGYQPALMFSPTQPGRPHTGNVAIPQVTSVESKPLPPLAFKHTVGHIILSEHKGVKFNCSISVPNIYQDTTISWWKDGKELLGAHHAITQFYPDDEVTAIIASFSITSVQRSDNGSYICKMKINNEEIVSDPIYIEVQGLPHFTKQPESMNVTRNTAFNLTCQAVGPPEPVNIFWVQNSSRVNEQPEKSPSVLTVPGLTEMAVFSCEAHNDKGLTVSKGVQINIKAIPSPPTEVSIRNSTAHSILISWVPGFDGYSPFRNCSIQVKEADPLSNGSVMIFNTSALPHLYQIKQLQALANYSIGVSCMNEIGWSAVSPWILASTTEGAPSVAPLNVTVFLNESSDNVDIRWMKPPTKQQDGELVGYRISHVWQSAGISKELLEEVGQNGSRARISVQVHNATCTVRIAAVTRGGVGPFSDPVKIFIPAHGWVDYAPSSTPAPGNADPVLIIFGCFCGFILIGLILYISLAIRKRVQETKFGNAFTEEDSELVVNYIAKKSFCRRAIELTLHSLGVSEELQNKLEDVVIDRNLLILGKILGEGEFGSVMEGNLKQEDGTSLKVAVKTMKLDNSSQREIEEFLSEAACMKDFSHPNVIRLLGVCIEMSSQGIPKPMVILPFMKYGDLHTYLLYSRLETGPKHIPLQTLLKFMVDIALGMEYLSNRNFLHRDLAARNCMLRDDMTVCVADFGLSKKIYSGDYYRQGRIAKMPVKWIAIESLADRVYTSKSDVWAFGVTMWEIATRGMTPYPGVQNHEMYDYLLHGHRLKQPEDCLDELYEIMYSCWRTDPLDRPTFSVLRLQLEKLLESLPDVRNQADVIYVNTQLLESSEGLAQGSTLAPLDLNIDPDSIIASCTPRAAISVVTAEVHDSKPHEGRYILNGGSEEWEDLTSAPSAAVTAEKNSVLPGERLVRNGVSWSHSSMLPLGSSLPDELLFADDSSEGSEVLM

MSSK1 = MSSK1 (Homo sapiens, UniProt Q9UPE1)
DRAK1 = target: T3, DRAK1 (Homo sapiens, UniProt Q9UEE5)
T3 sequence (Q9UEE5 1-414): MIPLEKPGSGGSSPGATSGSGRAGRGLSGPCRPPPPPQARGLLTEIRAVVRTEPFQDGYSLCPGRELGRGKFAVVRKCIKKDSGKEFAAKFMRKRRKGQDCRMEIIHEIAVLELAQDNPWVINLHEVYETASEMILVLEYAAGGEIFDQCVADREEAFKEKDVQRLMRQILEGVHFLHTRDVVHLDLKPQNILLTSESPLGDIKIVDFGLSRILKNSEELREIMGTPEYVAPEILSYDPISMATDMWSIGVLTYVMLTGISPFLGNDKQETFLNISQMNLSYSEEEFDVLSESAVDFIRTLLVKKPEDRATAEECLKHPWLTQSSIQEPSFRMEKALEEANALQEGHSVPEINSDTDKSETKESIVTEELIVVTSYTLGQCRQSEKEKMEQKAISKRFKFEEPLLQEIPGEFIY

MRCKa = MRCKa (Homo sapiens, UniProt Q5VT25)
CaMK1d = CaMK1d (Homo sapiens, UniProt Q8IU85)
Sequence of CaMK1d (Q8IU85 whole entry): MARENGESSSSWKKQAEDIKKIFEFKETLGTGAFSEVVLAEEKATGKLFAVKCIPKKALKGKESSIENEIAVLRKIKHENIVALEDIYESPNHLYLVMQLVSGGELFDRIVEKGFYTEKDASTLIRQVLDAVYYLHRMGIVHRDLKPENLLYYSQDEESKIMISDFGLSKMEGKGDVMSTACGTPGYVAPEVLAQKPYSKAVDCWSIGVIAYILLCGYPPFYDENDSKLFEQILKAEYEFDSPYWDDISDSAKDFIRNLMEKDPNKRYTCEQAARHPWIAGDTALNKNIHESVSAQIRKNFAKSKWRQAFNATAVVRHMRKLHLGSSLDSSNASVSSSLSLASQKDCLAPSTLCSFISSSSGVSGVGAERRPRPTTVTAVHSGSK

Sequence of MSSK1 (Q9UPE1 whole entry): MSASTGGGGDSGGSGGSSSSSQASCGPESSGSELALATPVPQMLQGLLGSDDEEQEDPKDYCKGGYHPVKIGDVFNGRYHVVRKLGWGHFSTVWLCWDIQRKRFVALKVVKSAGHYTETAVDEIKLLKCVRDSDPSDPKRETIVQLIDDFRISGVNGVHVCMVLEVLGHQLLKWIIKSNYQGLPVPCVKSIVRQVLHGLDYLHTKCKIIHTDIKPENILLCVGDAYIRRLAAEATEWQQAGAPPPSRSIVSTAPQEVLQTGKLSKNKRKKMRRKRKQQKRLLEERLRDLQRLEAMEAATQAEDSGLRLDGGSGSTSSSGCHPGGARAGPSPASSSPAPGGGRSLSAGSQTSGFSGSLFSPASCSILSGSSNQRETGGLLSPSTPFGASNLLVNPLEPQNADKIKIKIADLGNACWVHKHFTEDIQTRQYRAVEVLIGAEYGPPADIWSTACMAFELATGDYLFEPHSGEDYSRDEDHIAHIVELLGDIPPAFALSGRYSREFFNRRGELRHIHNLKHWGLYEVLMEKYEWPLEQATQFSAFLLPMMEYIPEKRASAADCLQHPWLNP
Sequence of CHK2 (O96017 whole entry): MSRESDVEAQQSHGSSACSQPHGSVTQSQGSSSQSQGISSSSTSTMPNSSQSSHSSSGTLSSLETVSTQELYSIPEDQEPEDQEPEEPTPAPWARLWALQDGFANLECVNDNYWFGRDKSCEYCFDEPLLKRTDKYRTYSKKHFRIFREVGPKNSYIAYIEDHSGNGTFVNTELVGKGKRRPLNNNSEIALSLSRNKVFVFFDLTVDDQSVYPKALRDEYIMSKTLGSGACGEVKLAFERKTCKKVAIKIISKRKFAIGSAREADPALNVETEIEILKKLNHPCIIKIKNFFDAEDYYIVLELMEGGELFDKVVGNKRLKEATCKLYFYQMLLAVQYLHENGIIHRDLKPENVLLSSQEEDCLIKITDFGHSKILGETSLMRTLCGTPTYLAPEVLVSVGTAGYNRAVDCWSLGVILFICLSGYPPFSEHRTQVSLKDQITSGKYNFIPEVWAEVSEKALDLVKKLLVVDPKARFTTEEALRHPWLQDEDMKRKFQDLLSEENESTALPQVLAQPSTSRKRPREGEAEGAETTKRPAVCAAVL
Sequence of MRCKa (Q5VT25 whole entry): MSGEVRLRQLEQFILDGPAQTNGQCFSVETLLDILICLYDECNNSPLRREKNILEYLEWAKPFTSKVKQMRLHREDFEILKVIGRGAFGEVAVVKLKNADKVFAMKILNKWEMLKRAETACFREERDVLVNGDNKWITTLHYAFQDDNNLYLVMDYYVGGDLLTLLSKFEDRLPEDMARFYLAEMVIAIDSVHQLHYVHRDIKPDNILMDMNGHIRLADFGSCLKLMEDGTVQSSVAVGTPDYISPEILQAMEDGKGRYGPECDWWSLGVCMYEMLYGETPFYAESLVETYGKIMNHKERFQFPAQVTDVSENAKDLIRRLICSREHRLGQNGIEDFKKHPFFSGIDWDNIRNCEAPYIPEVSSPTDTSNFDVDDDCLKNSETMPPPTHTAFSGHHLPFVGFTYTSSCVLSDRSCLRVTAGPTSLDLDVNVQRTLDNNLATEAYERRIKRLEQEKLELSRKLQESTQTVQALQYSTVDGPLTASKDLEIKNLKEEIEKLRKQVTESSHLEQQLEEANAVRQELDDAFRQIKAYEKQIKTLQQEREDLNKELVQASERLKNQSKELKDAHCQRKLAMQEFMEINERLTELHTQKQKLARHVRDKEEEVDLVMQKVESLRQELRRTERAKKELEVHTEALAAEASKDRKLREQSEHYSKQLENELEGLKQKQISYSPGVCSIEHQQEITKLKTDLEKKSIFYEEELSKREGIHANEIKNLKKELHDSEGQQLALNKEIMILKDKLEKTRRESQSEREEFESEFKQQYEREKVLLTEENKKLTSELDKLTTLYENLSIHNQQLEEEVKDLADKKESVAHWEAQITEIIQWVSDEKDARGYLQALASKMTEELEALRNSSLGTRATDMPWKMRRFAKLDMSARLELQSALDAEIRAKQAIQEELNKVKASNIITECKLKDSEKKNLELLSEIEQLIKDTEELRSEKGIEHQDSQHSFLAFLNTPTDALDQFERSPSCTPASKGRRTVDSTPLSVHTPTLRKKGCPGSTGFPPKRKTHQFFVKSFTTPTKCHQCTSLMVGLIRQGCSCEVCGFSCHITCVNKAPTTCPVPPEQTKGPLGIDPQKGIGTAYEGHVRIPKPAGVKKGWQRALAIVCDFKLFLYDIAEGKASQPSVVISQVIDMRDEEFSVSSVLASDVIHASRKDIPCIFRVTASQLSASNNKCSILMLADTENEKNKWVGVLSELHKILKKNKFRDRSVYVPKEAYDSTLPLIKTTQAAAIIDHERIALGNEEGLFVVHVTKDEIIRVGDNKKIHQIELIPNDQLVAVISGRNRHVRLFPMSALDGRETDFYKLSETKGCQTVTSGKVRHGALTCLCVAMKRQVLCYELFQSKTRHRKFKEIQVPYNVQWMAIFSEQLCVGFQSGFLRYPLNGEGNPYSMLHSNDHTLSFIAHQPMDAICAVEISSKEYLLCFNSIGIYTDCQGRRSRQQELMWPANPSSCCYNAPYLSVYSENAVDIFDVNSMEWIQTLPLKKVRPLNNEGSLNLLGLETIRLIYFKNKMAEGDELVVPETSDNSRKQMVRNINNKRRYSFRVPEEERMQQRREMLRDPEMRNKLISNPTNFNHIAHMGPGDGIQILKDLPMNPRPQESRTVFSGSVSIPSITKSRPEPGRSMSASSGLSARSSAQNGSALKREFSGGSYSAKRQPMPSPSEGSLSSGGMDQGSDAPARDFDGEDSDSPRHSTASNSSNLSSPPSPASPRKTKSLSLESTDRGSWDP

dTm 33 (CHK2): 10.4 °C
dTm 33 (NQO2A): 0.9 °C
dTm 33 (MER): 3.1 °C
dTm 33 (MSSK1): -0.4 °C
dTm 33 (DRAK1): 3.5 °C
dTm 33 (MRCKa): 1.9 °C
dTm 33 (CaMK1d): 5.9 °C
SMILES: Cc1cccc(-c2ccc(-c3cc4cnc(Nc5ccc(F)c(CO)c5)nc4n(CCCCN)c3=O)c(Cl)c2)n1 [compound 33, 8-(4-Aminobutyl)-6-(2-chloro-4-(6-methylpyridin-2-yl)phenyl)-2-((4-fluoro-3-(hydroxymethyl)phenyl)amino)pyrido[2,3-d]pyrimidin-7(8H)-one]

dTm 35 (CHK2): 13.0 °C
dTm 35 (NQO2A): -2.4 °C
dTm 35 (MER): 0.0 °C
dTm 35 (MSSK1): -0.2 °C
dTm 35 (DRAK1): 5.2 °C
dTm 35 (MRCKa): -2.1 °C
dTm 35 (CaMK1d): 5.8 °C
SMILES: COc1cc(N2CCOCC2)ccc1Nc1ncc2cc(-c3ccc(-c4cccc(C)n4)cc3Cl)c(=O)n(CCCCN)c2n1 [compound 35, 8-(4-Aminobutyl)-6-(2-chloro-4-(6-methylpyridin-2-yl)phenyl)-2-((2-methoxy-4-morpholino-phenyl)amino)pyrido[2,3-d]pyrimidin-7(8H)-one]

dTm 36 (CHK2): 12.6 °C
dTm 36 (NQO2A): -1.0 °C
dTm 36 (MER): -0.2 °C
dTm 36 (MSSK1): 0.0 °C
dTm 36 (DRAK1): 6.1 °C
dTm 36 (MRCKa): -0.9 °C
dTm 36 (CaMK1d): 5.6 °C
SMILES: COc1cc(N2CCN(C)CC2)ccc1Nc1ncc2cc(-c3ccc(-c4cccc(C)n4)cc3Cl)c(=O)n(CCCCN)c2n1 [compound 36, 8-(4-Aminobutyl)-6-(2-chloro-4-(6-methylpyridin-2-yl)phenyl)-2-((2-methoxy-4-(4-methylpiperazin-1-yl)phenyl)amino)pyrido[2,3-d]pyrimidin-7(8H)-one]

dTm 34 (CHK2): 6.4 °C
dTm 34 (NQO2A): -1.3 °C
dTm 34 (MER): 0.1 °C
dTm 34 (MSSK1): 0.4 °C
dTm 34 (DRAK1): 2.2 °C
dTm 34 (MRCKa): 0.8 °C
dTm 34 (CaMK1d): 3.9 °C
SMILES: COc1ccc(O)c(Nc2ncc3cc(-c4ccc(-c5cccc(C)n5)cc4Cl)c(=O)n(CCCCN)c3n2)c1 [compound 34, 8-(4-Aminobutyl)-6-(2-chloro-4-(6-methylpyridin-2-yl)phenyl)-2-((2-hydroxy-5-methoxy-phenyl)amino)pyrido[2,3-d]pyrimidin-7(8H)-one]
